From patent publication US20210317134A1, “UBIQUITIN-SPECIFIC-PROCESSING PROTEASE 7 (USP7) MODULATORS AND USES THEREOF” (RAPT THERAPEUTICS, INC., priority 2019, published 2021) come the findings set out here.

Where only a bound is given, the exact number is not on record here.

Sequence of USP7 (Q93009 whole entry): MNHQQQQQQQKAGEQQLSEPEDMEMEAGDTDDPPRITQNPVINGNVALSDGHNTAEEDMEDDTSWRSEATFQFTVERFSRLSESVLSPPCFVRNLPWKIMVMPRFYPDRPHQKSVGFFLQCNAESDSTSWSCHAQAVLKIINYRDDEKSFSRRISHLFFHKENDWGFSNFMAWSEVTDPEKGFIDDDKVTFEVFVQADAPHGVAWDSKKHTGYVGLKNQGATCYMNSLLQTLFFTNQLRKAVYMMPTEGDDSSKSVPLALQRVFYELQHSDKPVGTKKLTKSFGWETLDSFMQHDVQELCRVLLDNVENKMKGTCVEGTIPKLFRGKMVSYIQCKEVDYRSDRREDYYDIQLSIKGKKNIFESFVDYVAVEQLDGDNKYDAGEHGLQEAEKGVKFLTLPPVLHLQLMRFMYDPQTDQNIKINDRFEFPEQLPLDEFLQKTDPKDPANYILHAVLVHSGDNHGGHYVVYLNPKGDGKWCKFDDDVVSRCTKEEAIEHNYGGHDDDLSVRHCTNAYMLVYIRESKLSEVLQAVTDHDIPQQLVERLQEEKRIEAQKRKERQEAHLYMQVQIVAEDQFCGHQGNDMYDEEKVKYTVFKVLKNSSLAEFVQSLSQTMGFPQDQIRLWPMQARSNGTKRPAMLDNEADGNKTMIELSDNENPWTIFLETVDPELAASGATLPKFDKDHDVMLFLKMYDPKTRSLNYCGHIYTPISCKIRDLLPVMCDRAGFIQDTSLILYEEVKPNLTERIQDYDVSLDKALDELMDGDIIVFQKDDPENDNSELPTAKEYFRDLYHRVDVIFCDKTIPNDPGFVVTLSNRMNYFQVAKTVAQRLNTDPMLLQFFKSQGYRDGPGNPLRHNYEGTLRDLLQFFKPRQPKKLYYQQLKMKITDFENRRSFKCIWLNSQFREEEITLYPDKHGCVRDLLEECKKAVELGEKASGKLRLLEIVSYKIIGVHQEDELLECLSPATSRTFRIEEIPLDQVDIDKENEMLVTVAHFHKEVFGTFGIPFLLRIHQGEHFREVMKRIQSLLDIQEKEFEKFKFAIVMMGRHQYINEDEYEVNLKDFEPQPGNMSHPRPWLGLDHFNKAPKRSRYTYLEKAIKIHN

The assay concerns the target USP7 (Homo sapiens, UniProt Q93009). Put plainly: USP7 inhibitory potency (Table 1). It is filed as biochemical.
A word on the IC50: it is the concentration needed to halve the response being measured. Low readings indicate inhibition by little substance, high ones a need for much substance. Take `Cc1cc(-c2cc(Cl)cc3c2O[C@@H](c2onc4c2CNCC4)C3)c2ccc(C#N)cc2n1` [(R)-4-(5-chloro-2-(4,5,6,7-tetrahydroisoxazolo[4,3-c]pyridin-3-yl)-2,3-dihydrobenzofuran-7-yl)-2-methylquinoline-7-carbonitrile]: the IC50 was 10 to 30 µM.

As for `CN1CCc2noc([C@H]3Cc4cc(Cl)cc(-c5ccnc6ccsc56)c4O3)c2C1` [(R)-3-(5-chloro-7-(thieno[3,2-b]pyridin-7-yl)-2,3-dihydrobenzofuran-2-yl)-5-methyl-4,5,6,7-tetrahydroisoxazolo[4,3-c]pyridine], the IC50 was less than 1 µM.

With `CC(=O)NC(C)Cc1cc2nccc(-c3cc(Cl)cc4c3O[C@@H](C(=O)N3CCNCC3)C4)c2s1` (stereo partly drawn) [N-(1-(7-((R)-5-chloro-2-(piperazine-1-carbonyl)-2,3-dihydrobenzofuran-7-yl)thieno[3,2-b]pyridin-2-yl)propan-2-yl)acetamide], the IC50 was less than 1 µM.

Take `CC(O)Cc1cc2nccc(-c3cc(Cl)cc4c3O[C@@H](C(=O)N3CCNCC3)C4)c2s1` (stereo partly drawn) [((2R)-5-chloro-7-(2-(2-hydroxypropyl)thieno[3,2-b]pyridin-7-yl)-2,3-dihydrobenzofuran-2-yl)(piperazin-1-yl)methanone]: the IC50 was less than 1 µM.

Molecule `Cc1cc2nccc(-c3cc(Cl)cc4c3O[C@@H](c3onc5c3CNCC5)C4)c2s1` [(R)-3-(5-chloro-7-(2-methylthieno[3,2-b]pyridin-7-yl)-2,3-dihydrobenzofuran-2-yl)-4,5,6,7-tetrahydroisoxazolo[4,3-c]pyridine] gave an IC50 of less than 1 µM.

Turning to `O=C(C1Cc2cc(Cl)cc(-c3ccnc4[nH]ccc34)c2O1)N1CCC(O)(Cc2ccccc2)CC1` (centres unmarked) [(4-benzyl-4-hydroxypiperidin-1-yl)(5-chloro-7-(1H-pyrrolo[2,3-b]pyridin-4-yl)-2,3-dihydrobenzofuran-2-yl)methanone], the IC50 was 1 to 10 µM.

For the molecule `O=C(C1Cc2cc(Cl)cc(-c3ccnc4[nH]ccc34)c2O1)N1CCN(c2ccncn2)CC1` (centres unmarked) [(5-chloro-7-(1H-pyrrolo[2,3-b]pyridin-4-yl)-2,3-dihydrobenzofuran-2-yl)(4-(pyrimidin-4-yl)piperazin-1-yl)methanone], the IC50 was 1 to 10 µM.

As to `CC[C@@H](O)c1cc2nccc(-c3cc(Cl)cc4c3O[C@@](C)(c3onc5c3CNCC5)C4)c2s1` [(R)-1-(7-((R)-5-chloro-2-methyl-2-(4,5,6,7-tetrahydroisoxazolo[4,3-c]pyridin-3-yl)-2,3-dihydrobenzofuran-7-yl)thieno[3,2-b]pyridin-2-yl)propan-1-ol], the IC50 was less than 1 µM.

For `CCN1CCc2noc([C@H]3Cc4cc(Cl)cc(-c5ncnc6ccoc56)c4O3)c2C1` [(R)-3-(5-chloro-7-(furo[3,2-d]pyrimidin-4-yl)-2,3-dihydrobenzofuran-2-yl)-5-ethyl-4,5,6,7-tetrahydroisoxazolo[4,3-c]pyridine], the IC50 fell in the range of 1 to 10 µM.

Regarding `N#Cc1cc2nccc(-c3cc(Cl)cc4c3O[C@@H](c3onc5c3CNCC5)C4)c2cc1F` [(R)-4-(5-chloro-2-(4,5,6,7-tetrahydroisoxazolo[4,3-c]pyridin-3-yl)-2,3-dihydrobenzofuran-7-yl)-6-fluoroquinoline-7-carbonitrile], the IC50 was less than 1 µM.

Turning to `CN(C)C1CN(C(=O)[C@H]2Cc3cc(Cl)cc(-c4ccnc5ccsc45)c3O2)C1` [(R)-(5-chloro-7-(thieno[3,2-b]pyridin-7-yl)-2,3-dihydrobenzofuran-2-yl)(3-(dimethylamino)azetidin-1-yl)methanone], the IC50 is less than 1 µM.

For the molecule `CC1CCC(=O)N1Cc1cc2nccc(-c3cc(Cl)cc4c3O[C@@H](C(=O)N3CCNCC3)C4)c2s1` (stereo partly drawn) [1-((7-((R)-5-chloro-2-(piperazine-1-carbonyl)-2,3-dihydrobenzofuran-7-yl)thieno[3,2-b]pyridin-2-yl)methyl)-5-methylpyrrolidin-2-one], the IC50 is less than 1 µM.

`CCC(O)c1cc2nccc(-c3cc(Cl)cc4c3O[C@@H](c3onc5c3CN(CC)CC5)C4)c2s1` (stereo partly drawn) [1-(7-((R)-5-chloro-2-(5-ethyl-4,5,6,7-tetrahydroisoxazolo[4,3-c]pyridin-3-yl)-2,3-dihydrobenzofuran-7-yl)thieno[3,2-b]pyridin-2-yl)propan-1-ol]: the IC50 was less than 1 µM.

In turn, `O=C(C1Cc2cc(Cl)cc(-c3ccnc4c(F)cccc34)c2O1)N1CCNCC1` (centres unmarked) [(5-chloro-7-(8-fluoroquinolin-4-yl)-2,3-dihydrobenzofuran-2-yl)(piperazin-1-yl)methanone] showed an IC50 of 10 to 30 µM.

Molecule `CC(=O)NCc1ccc2c(-c3cc(Cl)cc4c3O[C@@H](c3onc5c3CNCC5)C4)ccnc2c1` [(R)-N-((4-(5-chloro-2-(4,5,6,7-tetrahydroisoxazolo[4,3-c]pyridin-3-yl)-2,3-dihydrobenzofuran-7-yl)quinolin-7-yl)methyl)acetamide] showed an IC50 of 1 to 10 µM.

Molecule `CC(C)(O)C1Cc2nccc(-c3cc(Cl)cc4c3O[C@@H](c3onc5c3CNCC5)C4)c2C1` (stereo partly drawn) [2-(4-((R)-5-chloro-2-(4,5,6,7-tetrahydroisoxazolo[4,3-c]pyridin-3-yl)-2,3-dihydrobenzofuran-7-yl)-6,7-dihydro-5H-cyclopenta[b]pyridin-6-yl)propan-2-ol] returned an IC50 of 1 to 10 µM.

Regarding `O=C(C1Cc2cc(Cl)cc(-c3ccnc4[nH]ccc34)c2O1)N1CCC(c2ccccc2O)CC1` (centres unmarked) [(5-chloro-7-(1H-pyrrolo[2,3-b]pyridin-4-yl)-2,3-dihydrobenzofuran-2-yl)(4-(2-hydroxyphenyl)piperidin-1-yl)methanone], the IC50 was in the range of 1 to 10 µM.

The molecule `C[C@H]1CNCCN1C(=O)C1Cc2cc(Cl)cc(-c3ccnc4[nH]ccc34)c2O1` (stereo partly drawn) [(5-chloro-7-(1H-pyrrolo[2,3-b]pyridin-4-yl)-2,3-dihydrobenzofuran-2-yl)((S)-2-methylpiperazin-1-yl)methanone] came in with an IC50 of 1 to 10 µM.

`CC(C)CC(O)c1cc2nccc(-c3cc(Cl)cc4c3O[C@@H](c3onc5c3CNCC5)C4)c2s1` (stereo partly drawn) [1-(7-((R)-5-chloro-2-(4,5,6,7-tetrahydroisoxazolo[4,3-c]pyridin-3-yl)-2,3-dihydrobenzofuran-7-yl)thieno[3,2-b]pyridin-2-yl)-3-methylbutan-1-ol] returned an IC50 of less than 1 µM.

`Clc1cc2c(c(-c3ncnc4c3CCC4)c1)O[C@@H](c1onc3c1CNCC3)C2` [(R)-3-(5-chloro-7-(6,7-dihydro-5H-cyclopenta[d]pyrimidin-4-yl)-2,3-dihydrobenzofuran-2-yl)-4,5,6,7-tetrahydroisoxazolo[4,3-c]pyridine] yielded an IC50 of 10 to 30 µM.

`CC1CC(=O)N(Cc2cc3nccc(-c4cc(Cl)cc5c4O[C@@H](C(=O)N4CCNCC4)C5)c3s2)C1=O` (stereo partly drawn) [1-((7-((R)-5-chloro-2-(piperazine-1-carbonyl)-2,3-dihydrobenzofuran-7-yl)thieno[3,2-b]pyridin-2-yl)methyl)-3-methylpyrrolidine-2,5-dione] registered an IC50 of less than 1 µM.

As to `Cn1nc2c(c1[C@H]1Cc3cc(Cl)cc(-c4ncnc5cc(CO)oc45)c3O1)CNCC2` [(R)-(4-(5-chloro-2-(2-methyl-4,5,6,7-tetrahydro-2H-pyrazolo [4,3-c]pyridin-3-yl)-2,3-dihydrobenzofuran-7-yl)furo[3,2-d]pyrimidin-6-yl)methanol], the IC50 is less than 1 µM.

Turning to `CCC(O)c1cc2nccc(-c3cc(Cl)cc4c3O[C@@H](c3onc5c3CNCC5)C4)c2s1` (stereo partly drawn) [drawing 1570, 1-(7-((R)-5-chloro-2-(4,5,6,7-tetrahydroisoxazolo[4,3-c]pyridin-3-yl)-2,3-dihydrobenzofuran-7-yl)thieno[3,2-b]pyridin-2-yl)propan-1-ol], the IC50 is less than 1 µM.
